Details: both, human, serum, iv, 5 mg

CNC1(c2ccccc2Cl)CCCCC1=O (racemic) [(±)-ketamine, 2-(2-chlorophenyl)-2-(methylamino)cyclohexan-1-one]
AUC(0-inf): 59.9 ± 13.2 ng·h/mL
Cmax: 33.7 ± 9.74 ng/mL
half-life: 6.99 ± 5.22 h

— patent US11103467B2, “Method for treating depression” (DEVELCO PHARMA SCHWEIZ AG, priority 2014, dated 2021)
